We go through 2 molecules from paper PMC4138991, “Building a Better Dynasore: The Dyngo Compounds Potently Inhibit Dynamin and Endocytosis” (Traffic (Copenhagen, Denmark), 2013).

Experiment [1] addresses T1, DynI (rec), full-length human dynamin I (Homo sapiens, UniProt Q05193).
T1 sequence (Q05193 1-864): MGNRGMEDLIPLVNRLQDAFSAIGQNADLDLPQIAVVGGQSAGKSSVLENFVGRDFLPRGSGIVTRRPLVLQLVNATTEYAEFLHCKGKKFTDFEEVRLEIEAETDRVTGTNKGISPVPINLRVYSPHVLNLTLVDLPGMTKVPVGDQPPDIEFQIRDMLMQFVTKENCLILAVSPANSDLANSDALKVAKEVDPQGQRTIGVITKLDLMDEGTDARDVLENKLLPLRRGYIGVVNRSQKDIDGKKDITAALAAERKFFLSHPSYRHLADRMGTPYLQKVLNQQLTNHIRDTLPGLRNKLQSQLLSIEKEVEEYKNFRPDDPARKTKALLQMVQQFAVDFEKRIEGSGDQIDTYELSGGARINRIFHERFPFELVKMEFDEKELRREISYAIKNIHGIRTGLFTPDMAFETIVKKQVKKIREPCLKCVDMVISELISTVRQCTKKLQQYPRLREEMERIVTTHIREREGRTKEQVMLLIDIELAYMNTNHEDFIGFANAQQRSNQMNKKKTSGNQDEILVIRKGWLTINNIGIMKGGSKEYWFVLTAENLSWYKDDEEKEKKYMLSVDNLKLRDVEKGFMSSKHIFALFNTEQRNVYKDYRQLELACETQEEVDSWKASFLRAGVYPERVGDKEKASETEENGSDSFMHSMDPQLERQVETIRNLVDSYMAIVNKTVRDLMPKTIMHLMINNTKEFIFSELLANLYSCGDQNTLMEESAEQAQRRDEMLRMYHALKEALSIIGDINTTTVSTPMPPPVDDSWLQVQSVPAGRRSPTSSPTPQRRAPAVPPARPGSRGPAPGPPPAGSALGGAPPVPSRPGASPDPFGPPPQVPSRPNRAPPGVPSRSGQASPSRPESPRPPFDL
Description: PS-stimulated GTPase assay with recombinant dynamin I from Sf21 cells. It is filed as biochemical. To be noted: for IC50: DynI 20 nM, no unit in table; for DynI selectivity ratio: DynI (rec) versus DynII (rec). The source says:
Recombinant dynamin I was used only for the data in Table 2. The dynamin antibodies were from: Dynamin I—in‐house YF2 antibodies, raised in rabbits against two different synthetic peptides: dynamin I 629‐647 ([…]) and dynamin I 765–778 ([…]), used at 1/2000 dilution, as previously described 53; Dynamin II—Santa Cruz (C‐18, sc‐6400, used at 1/1000) and Dynamin III—Santa Cruz (P‐13, sc‐69472, used at 1/500 dilution).
The Malachite Green colorimetric GTPase assay was as described 10. Dynamin I activity was measured in its SAI activity state or was stimulated by three different methods. As each stimulus activates dynamin to different extents, each assay required different dynamin concentrations. First, maximal dynamin activity was stimulated by sonicated PS liposomes 10. Purified dynamin I (10–20 nM, diluted in: 6 mM Tris–HCl, 20 mM NaCl and 0.01% Tween 80, pH 7.4) was incubated in 96‐well plates in GTPase buffer (5 mM Tris–HCl, 10 mM NaCl, 2 mM Mg^2+, 0.05% Tween 80, pH 7.4, 1 µg/mL leupeptin and 0.1 mM PMSF) and GTP 0.3 mM in the presence of test compound for 30 min at 37°C in a final assay volume of 150 μL. Reactions were terminated with 10 μL of 0.5 M ethylenediaminetetraacetic acid (EDTA) pH 7.4 and Malachite Green solution (40 μL: 2% w/v ammonium molybdate tetrahydrate, 0.15% w/v malachite green and 4 M HCl) was added for 5 min. Second, dynamin (20 nM) was stimulated by 10 µg/mL of taxol‐stabilized preformed bovine brain microtubules (Cytoskeleton, Inc) using the same protocol. Third, dynamin I (50 nM) was stimulated by 1 μM of recombinant growth factor receptor‐bound protein 2 (grb2), a SH3 (Src homology)‐containing protein that stimulates dynamin about 5–10 times less efficiently than liposomes or microtubules 54. The assay conditions were as described above. Finally, dynamin (500 nM) SAI activity was measured using high concentrations of dynamin, which promote its cooperative self‐assembly into rings (but not helices) 26. The final DMSO concentration in the GTPase or endocytosis assays was at most 3.3 or 1%, respectively, but typically was at 1%. The GTPase assay for dynamin I was unaffected by DMSO up to 3.3%. Compounds were dissolved as 30 mM stocks in 100% DMSO. These stock solutions can be stored at −20°C for several months. Compounds were subsequently diluted into solutions of 50% DMSO made up in 20 mM Tris–HCl pH 7.4 and diluted again into the final assay. For analysis of the kinetics of 4a inhibition, dynamin I at a final concentration of 17 nM was incubated with GTPase buffer containing PS (2 µg/mL) and varying amounts of GTP (50–250 μM) in the presence of 4a at a concentration range between 0.5 and 6 μM. […] After the Vmax and Km values were determined, the data were transformed using the Lineweaver–Burke equation, 1/v = 1/Vmax + (Km/Vmax)(1/[S]).

For experiment [2], the system named is dynamin I SAI activity (rings). Description: Self-assembly-induced (SAI) dynamin GTPase activity. To be noted: presence of Tween, 500 nM dynamin. In kind it is biochemical, sheep. How it is done:
(§1) The Malachite Green colorimetric GTPase assay was as described 10. Dynamin I activity was measured in its SAI activity state or was stimulated by three different methods. As each stimulus activates dynamin to different extents, each assay required different dynamin concentrations. First, maximal dynamin activity was stimulated by sonicated PS liposomes 10. Purified dynamin I (10–20 nM, diluted in: 6 mM Tris–HCl, 20 mM NaCl and 0.01% Tween 80, pH 7.4) was incubated in 96‐well plates in GTPase buffer (5 mM Tris–HCl, 10 mM NaCl, 2 mM Mg^2+, 0.05% Tween 80, pH 7.4, 1 µg/mL leupeptin and 0.1 mM PMSF) and GTP 0.3 mM in the presence of test compound for 30 min at 37°C in a final assay volume of 150 μL. Reactions were terminated with 10 μL of 0.5 M ethylenediaminetetraacetic acid (EDTA) pH 7.4 and Malachite Green solution (40 μL: 2% w/v ammonium molybdate tetrahydrate, 0.15% w/v malachite green and 4 M HCl) was added for 5 min. Second, dynamin (20 nM) was stimulated by 10 µg/mL of taxol‐stabilized preformed bovine brain microtubules (Cytoskeleton, Inc) using the same protocol. […] Finally, dynamin (500 nM) SAI activity was measured using high concentrations of dynamin, which promote its cooperative self‐assembly into rings (but not helices) 26. […] After the Vmax and Km values were determined, the data were transformed using the Lineweaver–Burke equation, 1/v = 1/Vmax + (Km/Vmax)(1/[S]).

Experiment [3] has as its system synaptosomes. In words: Glutamate release from synaptosomes (4-AP stimulated). In kind it is cell-based, rat. The note with it: 20 μM, 30 min pretreatment, 3 mM 4-AP. How it is done:
Release of glutamate from synaptosomes was performed as described previously 60, with minor changes. The assay was carried out at 37°C in a Perkin Elmer LS50 fluorimeter. Control (1% DMSO) and 4a‐treated samples were incubated in the presence of the compound for 30 min prior to stimulation of glutamate release. For each sample, 1 mg of crude P2 synaptosomes was diluted in 2 mL of HEPES‐buffered Krebs‐like buffer, either containing 1 mM EGTA (zero Ca^2+) or 1 mM EGTA plus 3 mM […] (2 mM free Ca^2+). NAPD^+ (3 mM) and glutamic acid dehydrogenase (50 U) were added and allowed to incubate for 15 min to allow residual glutamate in the sample to be metabolized. 4‐AP (3 mM) was subsequently added to stimulate glutamate release, which was recorded over a 5‐min period. Readings of fluorescence were taken every 2 seconds. All treatment conditions were carried out in zero Ca^2+ and 2 mM Ca^2+ conditions with the zero Ca^2+ measurement subtracted from the 2 mM measurement for each time point. […] Each treatment was carried out in duplicate within a single experiment and each independent experiment was carried out three times on separate days using synaptosomes prepared from fresh rat brain tissue ([…]).

Experiment [4] has as its system grb2-stimulated dynamin. The arrangement: method as in PMID 16740485. The note with it: no detergent, read-out: previously estimated IC50 for dynasore; cited from earlier work.
The target in experiment [5] is microtubule-stimulated dynamin I (Ovis aries, UniProt A0ACI6PDC7). Description: Microtubule-stimulated (helical) dynamin I GTPase assay. It is filed as biochemical, sheep. The note with it: presence of Tween-80. How it is done:
as §1

“Also recorded” adds a separate entry of the source.

Sequence of microtubule-stimulated dynamin I (A0ACI6PDC7 entry or part of it): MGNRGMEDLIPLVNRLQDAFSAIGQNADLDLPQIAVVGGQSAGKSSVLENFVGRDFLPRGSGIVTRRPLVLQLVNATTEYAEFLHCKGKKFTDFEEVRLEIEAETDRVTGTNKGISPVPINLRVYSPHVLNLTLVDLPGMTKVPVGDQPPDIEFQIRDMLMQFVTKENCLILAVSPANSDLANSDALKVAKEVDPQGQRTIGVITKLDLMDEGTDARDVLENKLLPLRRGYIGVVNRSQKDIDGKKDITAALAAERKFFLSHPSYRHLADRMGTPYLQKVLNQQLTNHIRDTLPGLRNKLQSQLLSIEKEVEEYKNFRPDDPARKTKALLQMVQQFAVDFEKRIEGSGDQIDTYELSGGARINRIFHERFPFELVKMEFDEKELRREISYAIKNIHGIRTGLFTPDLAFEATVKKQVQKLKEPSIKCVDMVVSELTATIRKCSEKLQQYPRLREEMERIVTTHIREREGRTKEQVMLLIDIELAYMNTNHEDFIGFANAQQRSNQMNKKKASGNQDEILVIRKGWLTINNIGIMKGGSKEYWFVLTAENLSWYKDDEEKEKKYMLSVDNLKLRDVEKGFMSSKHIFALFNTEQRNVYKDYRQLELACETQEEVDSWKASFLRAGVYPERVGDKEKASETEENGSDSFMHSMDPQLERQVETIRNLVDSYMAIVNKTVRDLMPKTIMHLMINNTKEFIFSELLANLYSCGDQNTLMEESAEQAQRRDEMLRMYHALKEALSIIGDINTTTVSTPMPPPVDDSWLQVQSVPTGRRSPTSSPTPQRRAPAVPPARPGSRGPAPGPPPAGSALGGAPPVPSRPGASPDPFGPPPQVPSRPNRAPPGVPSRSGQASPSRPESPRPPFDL

For the molecule `O=C(N/N=C/c1cc(O)c(O)cc1O)c1cc2ccccc2cc1O` [4a, (E)-3-Hydroxy-N'-(2,4,5-trihydroxybenzylidene) -2-naphthohydrazide], in experiment [1] (Absence of Tween), the IC50 is 1.1 ± 0.2 µM and the DynI selectivity ratio came out at 2.1. In addition, in experiment [1] (Presence of Tween), the half-inhibitory concentration (IC50) is 30 ± 8.2 µM and the DynI selectivity ratio is recorded as 3.1. Also, in experiment [2], the “inhibition of SAI (self-assembly) activity” value was “not at all inhibited; also recorded: without effect”. In experiment [3], the “Ca2+-dependent glutamate release” value is “decrease in the release of glutamate only after 45 seconds”.
In the case of `O=C(N/N=C/c1ccc(O)c(O)c1)c1cc2ccccc2cc1O` [Dynasore, (E)-N'-(3,4-Dihydroxybenzylidene)-3-hydroxy-2-naphthohydrazide], the IC50 in experiment [4] is around 15 µM. For the same molecule, the “block of microtubule-stimulated dynamin activity” value in experiment [5] is listed as “did not block”. For the same molecule, in experiment [2], the “inhibition of SAI (self-assembly) activity” value is given as “did not block”.
